Test results taken from the supplement of paper PMC11061612.

What was measured:
IST-MES1 (Mesothelioma) = test: Bliss excess, mean over the matrix (fraction); higher = more synergy
Summary of the method: (§1)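 After 24 hours at 37°C and 5% CO2 in 1536-well plates, cells in DMEM/F12 or RPMI plus 10% FBS received two-drug dose matrices for 72 hours. Viability came from CellTiter-Glo 2.0 luminescence and was scaled as inhibition, anchored at 0 by vehicle wells and at 1 by blank wells. Combination Emax is taken as the second-highest inhibition in the matrix, and Bliss excess as the observed combination effect less EA + EB − EA·EB, with EA and EB the single-agent effects.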

[1] = system: HCT-15 (Colorectal Carcinoma); test: as above
Summary of the method: as §1

[2] = system: MKN45 (Gastric Carcinoma); test: as above
Summary of the method: as §1

[3] = system: HEC-1 (Endometrial Carcinoma); test: as above
Summary of the method: as §1

[4] = system: HSC-39 (Gastric Carcinoma); test: as above
Summary of the method: as §1

[5] = system: NCI-H23 (Lung Adenocarcinoma); test: as above
Summary of the method: as §1

WM793B (Melanoma) = test: as above
Summary of the method: as §1

[6] = system: RKN (Other Solid Carcinomas); test: as above
Summary of the method: as §1

A2058 (Melanoma) = test: as above
Summary of the method: as §1

[7] = system: GP5d (Colorectal Carcinoma); test: as above
Summary of the method: as §1

[8] = system: KE-37 (T-Lymphoblastic Leukemia); test: as above
Summary of the method: as §1

[9] = system: RERF-LC-Sq1 (Squamous Cell Lung Carcinoma); test: as above
Summary of the method: as §1

[10] = system: CAL-120 (Breast Carcinoma); test: as above
Summary of the method: as §1

[11] = system: RCM-1 (Colorectal Carcinoma); test: as above
Summary of the method: as §1

[12] = system: CAL-62 (Thyroid Gland Carcinoma); test: as above
Summary of the method: as §1

[13] = system: LXF-289 (Lung Adenocarcinoma); test: as above
Summary of the method: as §1

SF539 (Glioblastoma) = test: as above
Summary of the method: as §1

[14] = system: LB996-RCC (Kidney Carcinoma); test: combination Emax (second highest fraction inhibited in the dose matrix, 72 h); higher = more inhibition; extreme values may be limits of the assay
Summary of the method: as §1

[15] = system: RERF-LC-Sq1 (Squamous Cell Lung Carcinoma); test: as above
Summary of the method: as §1

[16] = system: CAL-120 (Breast Carcinoma); test: as above
Summary of the method: as §1
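Wherever Bliss excess, mean over the matrix is given: after 72 h of two-drug dosing.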

SMILES	Bliss excess (IST-MES1 (Mesothelioma))	Bliss excess [1]	Bliss excess [2]	Bliss excess [3]	Bliss excess [4]	Bliss excess [5]	Bliss excess (WM793B (Melanoma))	Bliss excess [6]	Bliss excess (A2058 (Melanoma))	Bliss excess [7]	Bliss excess [8]	Bliss excess [9]	Bliss excess [10]	Bliss excess [11]	Bliss excess [12]	Bliss excess [13]	Bliss excess (SF539 (Glioblastoma))	combination Emax [14]	combination Emax [15]	combination Emax [16]
CN(C)CCCOc1ccc(-c2ccc3ncc4c(c3c2)n(C2CCOCC2)c(=O)n4C)cn1 [AZD0156] + C=CCn1c(=O)c2cnc(Nc3ccc(N4CCN(C)CC4)cc3)nc2n1-c1cccc(C(C)(C)O)n1 [AZD1775] (first compound max 1 µM, partner max 1 µM)	-0.0624	0.0622	-0.0774	-0.0257	-0.0144	-0.0406	-0.0081	-0.0683	-0.0313	-0.0369	0.0241	0.0224	-0.0638	-0.0621	-0.0006	0.0066	-0.0023	0.801	0.758	0.326
CN(C)CCCOc1ccc(-c2ccc3ncc4c(c3c2)n(C2CCOCC2)c(=O)n4C)cn1 [AZD0156] + CCN(CCO)CCCOc1ccc2c(Nc3cc(CC(=O)Nc4cccc(F)c4)[nH]n3)ncnc2c1 [AZD2811] (first compound max 1 µM, 7x7, partner max 1 µM)	-0.0439	0.0156	0.0034	-0.0152	-0.0113	-0.0119	0.0212	-0.0417	-0.0201	0.004	-0.0173	0.0325	-0.0164	-0.0241	0.007	0.052	-0.0196	0.362	0.306	0.102
CN(C)CCCOc1ccc(-c2ccc3ncc4c(c3c2)n(C2CCOCC2)c(=O)n4C)cn1 [AZD0156] + C[C@@H]1COCCN1C2=NC(=NC(=C2)C3(CC3)[S@](=N)(=O)C)C4=C5C=CNC5=NC=C4 [AZD6738] (first compound max 1 µM, 7x7, partner max 10 µM)	-0.0679	0.0663	0.0072	-0.004	0.0054	-0.0218	0.0342	-0.0126	-0.0135	0.0291	0.0459	0.0544	0.0142	-0.0343	-0.0221	0.0318	0.0274	0.581	0.843	0.437
CN(CCO)CC[C@H](CSc1ccccc1)Nc1ccc(S(=O)(=O)NC(=O)c2ccc(N3CCC([C@@H](O)c4ccccc4-c4ccc(Cl)cc4)CC3)cc2)cc1S(=O)(=O)C(F)(F)F [AZD4320] + C1CN(CCC1(C(=O)N[C@@H](CCO)C2=CC=C(C=C2)Cl)N)C3=NC=NC4=C3C=CN4 [Capivasertib] (first compound max 1 µM, 7x7, partner max 3 µM)	-0.0371	-0.0435	-0.0977	-0.0759	-0.0072	-0.0273	-0.0384	-0.0321	-0.032	-0.0396	0.0185	-0.0223	-0.0649	-0.0768	-0.0463	-0.0904	-0.0352	0.494	0.667	
CN(CCO)CC[C@H](CSc1ccccc1)Nc1ccc(S(=O)(=O)NC(=O)c2ccc(N3CCC([C@@H](O)c4ccccc4-c4ccc(Cl)cc4)CC3)cc2)cc1S(=O)(=O)C(F)(F)F [AZD4320] + C=CCn1c(=O)c2cnc(Nc3ccc(N4CCN(C)CC4)cc3)nc2n1-c1cccc(C(C)(C)O)n1 [AZD1775] (first compound max 1 µM, partner max 1 µM)	-0.0274	-0.054		0.0194	0.0562	0.0364	-0.0248	-0.0357	0.0066	-0.0238	0.0578	-0.0021	0.0158	-0.0586	0.0035	-0.0252	-0.0518	0.978	0.683	0.854
CN(CCO)CC[C@H](CSc1ccccc1)Nc1ccc(S(=O)(=O)NC(=O)c2ccc(N3CCC([C@@H](O)c4ccccc4-c4ccc(Cl)cc4)CC3)cc2)cc1S(=O)(=O)C(F)(F)F [AZD4320] + Cn1cnc2c(F)c(Nc3ccc(Br)cc3Cl)c(C(=O)NOCCO)cc21 [Selumetinib] (first compound max 1 µM, 7x7, partner max 3 µM)	0.0318	0.0267	-0.0725	-0.018	0.0414	0.0703	0.0604	0.0307		0.0908	0.0464	0.0158	0.0577	0.0333	-0.0051	-0.0301	0.0176	0.513	0.49	0.8
COc1nnc2ccc(N3CCC(c4ccc(OCCN5CCN(C)C(=O)[C@H]5C)cc4)CC3)nn12 [AZD5153] + CN(CC[C@H](CSC1=CC=CC=C1)NC2=C(C=C(C=C2)S(=O)(=O)NC(=O)C3=CC=C(C=C3)N4CCC(CC4)[C@H](C5=CC=CC=C5C6=CC=C(C=C6)Cl)O)S(=O)(=O)C(F)(F)F)CCO [AZD4320] (first compound max 1 µM, 7x7, partner max 1 µM)		-0.0035		0.0486		-0.0027	-0.0257		-0.0062	0.0199	0.0222	0.0113	0.0415			0.0194		0.539	0.706	0.919
Cc1c2c(nn1C)CSCc1cc(n(C)n1)CSc1cc(c3ccccc3c1)OCCCc1c(C(=O)O)n(C)c3c-2c(Cl)ccc13 [AZD5991] + C1CN(CCC1(C(=O)N[C@@H](CCO)C2=CC=C(C=C2)Cl)N)C3=NC=NC4=C3C=CN4 [Capivasertib] (first compound max 1 µM, 7x7, partner max 3 µM)	-0.0195	0.002	-0.0262	-0.025	0.0308	-0.0276	0.0045	-0.0234	0.0972	-0.0493	-0.0409	0.0125	0.0424	0.0005		0.042	-0.0043	0.433	0.757	0.256
Cc1c2c(nn1C)CSCc1cc(n(C)n1)CSc1cc(c3ccccc3c1)OCCCc1c(C(=O)O)n(C)c3c-2c(Cl)ccc13 [AZD5991] + C[C@@H]1COCCN1C2=NC(=NC(=C2)C3(CC3)[S@](=N)(=O)C)C4=C5C=CNC5=NC=C4 [AZD6738] (first compound max 1 µM, 7x7, partner max 10 µM)		0.0431	-0.0812	0.0258	-0.0026	-0.0037	0.0503	0.0098	0.0756	0.002	0.0338	0.0273	0.0621	-0.0371	0.0278	0.0667	-0.0231	0.752	0.853	0.413
Cc1c2c(nn1C)CSCc1cc(n(C)n1)CSc1cc(c3ccccc3c1)OCCCc1c(C(=O)O)n(C)c3c-2c(Cl)ccc13 [AZD5991] + C[C@@H](Nc1cc(F)cc(F)c1)c1cc(C(=O)N(C)C)cc2c(=O)cc(N3CCOCC3)oc12 [AZD8186] (first compound max 1 µM, 7x7, partner max 3 µM)	-0.0524	-0.01	-0.0777	-0.0143	-0.0069	-0.0085	0.0512	-0.0269	0.119	-0.0645	-0.0459	-0.0353	-0.0318	-0.0102		-0.0127	-0.0052	0.373	0.228	0.218
CS(=O)(=O)CCNCc1ccc(-c2ccc3ncnc(Nc4ccc(OCc5cccc(F)c5)c(Cl)c4)c3c2)o1 [Lapatinib] + NC1(c2ccc(-c3nc4ccn5c(=O)[nH]nc5c4cc3-c3ccccc3)cc2)CCC1 [MK-2206] (first compound max 10 µM, 7x7, partner max 10 µM)	0.0433		-0.0466		0.104	-0.0481		-0.0169	-0.049					-0.0323	-0.0034		-0.0077			
CC(=O)c1c(C)c2cnc(Nc3ccc(N4CCNCC4)cn3)nc2n(C2CCCC2)c1=O [Palbociclib] + CN(CC[C@H](CSC1=CC=CC=C1)NC2=C(C=C(C=C2)S(=O)(=O)NC(=O)C3=CC=C(C=C3)N4CCC(CC4)[C@H](C5=CC=CC=C5C6=CC=C(C=C6)Cl)O)S(=O)(=O)C(F)(F)F)CCO [AZD4320] (first compound max 10 µM, 7x7, partner max 1 µM)		-0.0286		-0.125		-0.0367	-0.0525		-0.0261	0.0238	-0.0137	-0.0176	-0.0614			-0.0091		0.729	0.575	0.815
CCc1c2c(nc3ccc(O)cc13)-c1cc3c(c(=O)n1C2)COC(=O)[C@]3(O)CC [SN-38] + O=C(c1cc(Cc2n[nH]c(=O)c3ccccc23)ccc1F)N1CCN(C(=O)C2CC2)CC1 [Olaparib] (first compound max 0.3 µM, 7x7, partner max 10 µM)	-0.0582	0.0754	-0.0495	0.0181	-0.0724			0.0145	0.038	0.143	0.0357	0.0502	0.0417	-0.0176	0.0139		0.0549	0.854	0.672	0.7
